Assay results reported in patent publication US12404251B2, “Small molecule compound” (Cerepeut, Inc., priority 2017, dated 2025).
“Also recorded” adds a separate entry of the source.

Legend:
Molt-4 = test: CellTiter-Glo cell viability, Molt-4 T-ALL model; assay type: cell-based, human; settings: Molt-4, 72 hour incubation
Method: (§1) Cell seeding (Day “−1”): The cell density of eight adherent cell lines was adjusted according to supplier-recommended information. 50 μL cells were seeded in four 384-well-plates, and 50 μL DPBS was added to the edge wells.
(§2) Compound preparation (Day 0): All test compounds were dissolved in DMSO and stored in a nitrogen cabinet. The stock concentration of the test compounds was 120 mM. The stock concentration of the reference compounds was 10 mM. The reference compound paclitaxel was diluted with DMSO to provide a 400 μM stock solution.
(§3) Cell treatment with test compounds (Day 0): Test compounds (125 nL in DMSO) were added to the wells using an ECHO liquid handling system (Labcyte Inc.) and serially diluted by three fold, providing 10 doses in each series with a maximum concentration of 300 μM. […]
(§4) Assay (Day 3): After the cells were treated with the compounds for 72 hours, the plates were equilibrated at room temperature for approximately 30 minutes. 25 μL of CellTiter Glo reagent was added to each well, and the luminescence in each well was measured after 10 min using an ENVISION fluorescence plate reader (PerkinElmer). […]
(§5) To evaluate the anti-tumor activity of CPT-2008, the growth inhibitory effect of the compound was measured in various human cancer cell lines after 72 hour incubation. […] The data recorded for the paclitaxel reference compound were consistent with the historical published data.

Jurkat = test: CellTiter-Glo cell viability, Jurkat T cell leukemia model; assay type: cell-based, human; settings: 72 hour incubation
Method: as §1, §2, §3, §4, §5

NCI-H82 = test: CellTiter-Glo cell viability, NCI-H82 SCLC model; assay type: cell-based, human; settings: NCI-H82, 72 hour incubation
Method: as §1, §2, §3, §4, §5

NCI-H446 = test: CellTiter-Glo cell viability, NCI-H446 SCLC model; assay type: cell-based, human; settings: NCI-H446, 72 hour incubation
Method: as §1, §2, §3, §4, §5

NCI-H1299 = test: CellTiter-Glo cell viability, NCI-H1299 NSCLC model; assay type: cell-based, human; settings: NCI-H1299, 72 hour incubation
Method: as §1, §2, §3, §4, §5

A549 = test: CellTiter-Glo cell viability, A549 NSCLC model; assay type: cell-based, human; settings: A549, 72 hour incubation
Method: as §1, §2, §3, §4, §5

T98G = test: CellTiter-Glo cell viability, T98G glioblastoma model; assay type: cell-based, human; settings: 72 hour incubation
Method: as §1, §2, §3, §4, §5

U118MG = test: CellTiter-Glo cell viability, U118MG glioblastoma model; assay type: cell-based, human; settings: 72 hour incubation
Method: as §1, §2, §3, §4, §5

MCF7 = test: CellTiter-Glo cell viability, MCF7 breast cancer model; assay type: cell-based, human; settings: MCF7, 72 hour incubation
Method: as §1, §2, §3, §4, §5

A2780 = test: CellTiter-Glo cell viability, A2780 ovarian cancer model; assay type: cell-based, human; settings: A2780, 72 hour incubation
Method: as §1, §2, §3, §4, §5

HCT116 = test: CellTiter-Glo cell viability, HCT116 colorectal cancer model; assay type: cell-based, human; settings: HCT116, 72 hour incubation
Method: as §1, §2, §3, §4, §5

human GBM cells [1] = test: Mitochondrial calcium, Rhod-2AM staining; assay type: cell-based; settings: vs DMSO control (FIG. 14)
Text: GBM cells treated with DMSO vehicle (control) or with CPT-2008 in DMSO were stained with Rhod-2AM to probe mitochondrial calcium (mito-Ca^2+) level. CPT-2008 elevated mito-Ca^2+.
(§6) CPT-2008 affects mitochondrial function. […] Given the important role of mitochondria in maintaining cancer cells, especially cancer stem cells, the effects of CPT-2008 on a number of mitochondrial parameters in human glioblastoma (GBM) cells were texted next. First, the effects of CPT-2008 on mitochondrial ROS level were studied. For this purpose, the mito-SOX dye was used. Mito-SOX can specifically monitor mitochondrial ROS levels. […] The effect of CPT-2008 on mitochondrial membrane potential, a key factor that determines mitochondrial health and activity, was also measured using the TRM dye. […] The effect of CPT-2008 on mitochondrial calcium homeostasis was also measured using the Rhod-2AM dye, which specifically monitors mitochondrial calcium levels. […] The effect of CPT-2008 on mitochondrial morphology was also measured using immunostaining of the mitochondrial outer membrane marker Tom20. […] Finally, the effect of CPT-2008 on the self-renewal of GBM cells was tested.

human GBM cells [2] = test: Mitochondrial ROS, Mito-SOX staining; assay type: cell-based; settings: vs DMSO control (FIG. 15)
Text: GBM cells treated with DMSO vehicle (control) or with CPT-2008 in DMSO were stained with Mito-SOX to probe mitochondrial ROS level.
as §6

GBM cells = test: Mitochondrial morphology, TOM-20 immunostaining; assay type: cell-based, human; settings: vs DMSO control (FIG. 16)
Text: GBM cells treated with DMSO (control) or CPT-2008 in DMSO were immunostained for TOM-20 to reveal mitochondrial morphology.
as §6

human GBM cells [3] = test: Mitochondrial membrane potential, TMRM staining; assay type: cell-based; settings: vs DMSO vehicle (FIG. 17)
Text: GBM cells treated with DMSO vehicle or with CPT-2008 in DMSO were stained with TMRM to probe mitochondrial membrane potential.
as §6

human GBM cells [4] = test: Self-renewal of GBM cells (neurosphere formation); assay type: cell-based; settings: 20 uM CPT-2008 vs DMSO vehicle (FIG. 18)
Method: Control: cells treated with DMSO vehicle; CPT-2008: cells treated with 20 uM CPT-2008.
as §6

Sprague-Dawley rats = test: Rat middle cerebral artery occlusion (MCAO) stroke model; assay type: in vivo; settings: rat MCAO 1.5 h, 24 h reperfusion; 25-100 mg/kg intraperitoneally 0 h and 8 h after reperfusion; TTC staining; compared with edaravone 6 mg/kg
Method: Edaravone (3-methyl-1-phenyl-2-pyrazolin-5-one) is a reactive oxygen species (ROS) scavenger approved for the treatment of stroke and ALS in Japan, and for the treatment of ALS in the United States. The efficacy of CPT-2008 for preventing brain damage in a rat middle cerebral artery occlusion (MCOA) model was compared with the efficacy of edaravone. Sprague-Dawley rats were dosed with vehicle, edaravone (6 mg/kg), or CPT-2008 (25-100 mg/kg), and the level of infarcted brain tissue was assessed. In this study rats underwent middle cerebral artery occlusion (MCAO) for 1.5 h followed by 24 h reperfusion. CPT-2008 was given intraperitoneally 0 h and 8 h after reperfusion, and behavior deficits and brain insult were assessed by Longa score scale and TTC staining, respectively. […] It is believed that the improved benefit of CPT-2008 is due, in part, to prevention ROS formation in brain tissue mitochondria.

paclitaxel-treated rats = test: Paclitaxel-induced neuropathic pain model, paw withdrawal test; assay type: in vivo, rat; settings: 100 mg/kg intraperitoneal; 1.5 h, 3 h, 4.5 h post dosing; vs vehicle (FIG. 20)
Method: An estimated 30-40% of cancer patients undergoing chemotherapy experience peripheral neuropathic pain, a neuroinflammation-induced debilitating side effect that causes patients to stop their treatment early or take lower doses. The effects of CPT-2008 in reducing neuropathic pain were studied in paclitaxel-treated rats. After paclitaxel treatment for 8 days, Sprague-Dawley rats were housed for additional days. On day 22, 16 rats were randomly separated into two groups. One group was dosed with vehicle, and the other group was dosed via intraperitoneal injection with CPT-2008 at 100 mg/kg. Pain (mechanical allodynia) test subjects was assessed using a paw withdrawal test (PWT) as described by Xie (“Activation of notch signaling mediates the induction and maintenance of mechanical allodynia in a rat model of neuropathic pain.” Molecular Medicine Reports 12: 639-644, 2015). Rats were measured for paw withdrawal threshold post dosing of test compound at 1.5 h, 3 h, and 4.5 h.

[5] = Pharmacokinetics in Sprague-Dawley rats (plasma and brain); assay type: in vivo, rat; settings: for bioavailability: Sprague-Dawley, rat, in vivo
Method: Sprague-Dawley rats were administered CPT-2008 by IV or PO. Blood samples (about 1 mL) were collected via cardiac puncture after euthanasia by carbon dioxide inhalation at 5 min, 15 min, 30 min, 1 h, 2 h, 4 h, 8 h, 24 h of post dose. Blood samples were placed into tubes containing heparin sodium and centrifuged at 3500 rpm for 10 minutes at 4° C. to separate plasma from the samples. Following centrifugation, the resulting plasma was transferred to labeled tubes and stored frozen at −80° C. pending bioanalysis. The brain each studied animal at each time point was collected after the animal was euthanized by carbon dioxide inhalation. The whole tissue was harvested, excised and then placed into one tube per tissue per animal. The tissue samples were placed on dry ice and then stored at −80° C. until bioanalysis.

in vitro [6] = assay type: in vitro ADME; settings: human
in vitro [7] = assay type: in vitro ADME; settings: human; remark: listed apart in the source

Structure (SMILES): COc1cc(-n2c(S)nc3cc(OC)c(Cl)cc3c2=O)c(Cl)cc1Cl [CPT-2008, 6-chloro-3-(2,4-dichloro-5-methoxyphenyl)-2-mercapto-7-methoxyquinazolin-4(3H)-one]
- IC50 (Molt-4): low μM range
- IC50 (Jurkat): nM range
- IC50 (NCI-H82): nM range
- IC50 (NCI-H446): nM range
- IC50 (NCI-H1299): low μM range
- IC50 (A549): low μM range
- IC50 (T98G): low μM range
- IC50 (U118MG): low μM range
- IC50 (MCF7): low μM range
- IC50 (A2780): nM range
- IC50 (HCT116): low μM range
- mitochondrial calcium (mito-Ca2+) level (human GBM cells [1]): caused an increase; also recorded: elevated
- mitochondrial ROS level (human GBM cells [2]): significant increase; also recorded: significantly elevated
- mitochondrial morphology (GBM cells): dramatic fragmentation of mitochondria; also recorded: induced mitochondrial size reduction
- mitochondrial membrane potential (human GBM cells [3]): dramatic reduction; also recorded: dramatically reduced
- self-renewal of GBM cells (ability to form neurospheres) (human GBM cells [4]): significantly inhibited; also recorded: lost such ability
- level of infarcted (dead) brain tissue (Sprague-Dawley rats): reduced levels of dead brain tissue
- paw withdrawal threshold (mechanical allodynia) (paclitaxel-treated rats): increased threshold values
- crossing of the blood brain barrier ([5]; Sprague-Dawley rats, IV or PO (FIG. 21A, 21B)): efficiently cross the blood brain barrier
- bioavailability ([5]; brain bioavailability): 39%
- bioavailability ([5]; plasma bioavailability): 94.5%
- stability in microsomes (in vitro [6]): excellent stability
- half-life (in vitro [6]; microsomes): ~3.6 h
- stability in hepatocytes (in vitro [7]): excellent stability
- half-life (in vitro [7]; hepatocytes, half-life): ~94.3 h
